≈ marks a conversion by molar mass, not a printed value. Read-outs that look alike come from different tables or passages of the source.
What was measured:
[1] = tested on: Bacillus subtilis ATCC6633; assay: MIC, serial dilution method in Müller-Hinton agar; assay type: cell-based; settings: 37°C, 18 hours
Protocol: (§1) The antibacterial activities of the cephalosporin compounds of the formula (I) according to this invention, specifically the final product compounds of the Examples 1 to 6 given hereinafter, were assayed in term of their minimum inhibitory concentrations (MIC; mcg/ml) against various test bacteria, as determined according to a standard serial dilution method in Müller-Hinton agar medium (a product of Difico company), where the incubation was made at 37°C for 18 hours. For the comparison purpose, the antibacterial spectrum of a known compound, Cefalexin (abbreviated as CEX) was also assayed in the same way as above.

[2] = tested on: Escherichia coli K-12 C600; assay: MIC, serial dilution method in Müller-Hinton agar; assay type: cell-based
Protocol: as §1

[3] = tested on: Escherichia coli NIHJ-JS-2; assay: MIC, serial dilution method in Müller-Hinton agar; assay type: cell-based
Protocol: as §1

[4] = tested on: Klebsiella oxytosa GN10560; assay: MIC, serial dilution method in Müller-Hinton agar; assay type: cell-based; settings: Klebsiella oxytosa GN10560, cefuroximase producing strain, 37°C, 18 hours
Protocol: as §1

[5] = tested on: Klebsiella pneumoniae PCI602; assay: MIC, serial dilution method in Müller-Hinton agar; assay type: cell-based
Protocol: as §1

[6] = tested on: Micrococcus luteus ATCC9341; assay: MIC, serial dilution method in Müller-Hinton agar; assay type: cell-based; settings: 37°C, 18 hours
Protocol: as §1

Proteus morganii IFO3848 = assay: MIC, serial dilution method in Müller-Hinton agar; assay type: cell-based; settings: Morganella morganii
Protocol: as §1

Proteus rettgeri IFO3850 = assay: MIC, serial dilution method in Müller-Hinton agar; assay type: cell-based; settings: Providencia rettgeri
Protocol: as §1

Proteus vulgaris OX-19 = assay: MIC, serial dilution method in Müller-Hinton agar; assay type: cell-based; settings: OX19, 37°C, 18 hours
Protocol: as §1

[7] = tested on: Pseudomonas aeruginosa IFO3445; assay: MIC, serial dilution method in Müller-Hinton agar; assay type: cell-based; settings: 37°C, 18 hours
Protocol: as §1

[8] = tested on: Rms139/MI Pseudomonas aeruginosa; assay: MIC, serial dilution method in Müller-Hinton agar; assay type: cell-based; settings: 18 h
Protocol: as §1

[9] = tested on: Rms212/Escherichia coli K-12 W3630; assay: MIC, serial dilution method in Müller-Hinton agar; assay type: cell-based; settings: 18 h
Protocol: as §1

[10] = tested on: Rms213/Escherichia coli K-12 W3630; assay: MIC, serial dilution method in Müller-Hinton agar; assay type: cell-based; settings: 18 h
Protocol: as §1

[11] = tested on: Rms823/Escherichia coli K-12 W3630; assay: MIC, serial dilution method in Müller-Hinton agar; assay type: cell-based; settings: 18 h
Protocol: as §1

[12] = tested on: Rte16/Escherichia coli K-12 W3630; assay: MIC, serial dilution method in Müller-Hinton agar; assay type: cell-based; settings: 18 h
Protocol: as §1

[13] = tested on: Salmonella enteritidis G14; assay: MIC, serial dilution method in Müller-Hinton agar; assay type: cell-based; settings: Salmonella enterica; Salmonella enteritidis G14; Müller-Hinton agar, 37°C, 18 hours; read-out: MIC
Protocol: as §1

[14] = tested on: Salmonella paratyphi 1015; assay: MIC, serial dilution method in Müller-Hinton agar; assay type: cell-based; settings: Salmonella enterica, 37°C, 18 hours
Protocol: as §1

[15] = tested on: Salmonella schottmulleri 8006; assay: MIC, serial dilution method in Müller-Hinton agar; assay type: cell-based; settings: 37°C, 18 hours
Protocol: as §1

Salmonella typhi 901 = assay: MIC, serial dilution method in Müller-Hinton agar; assay type: cell-based; settings: Salmonella enterica, 18 h
Protocol: as §1

[16] = tested on: Salmonella typhimurium IID971; assay: MIC, serial dilution method in Müller-Hinton agar; assay type: cell-based; settings: Salmonella enterica, 18 h
Protocol: as §1

[17] = tested on: Staphylococcus aureus FDA209P JC-1; assay: MIC, serial dilution method in Müller-Hinton agar; assay type: cell-based
Protocol: as §1

[18] = tested on: Staphylococcus aureus MS353; assay: MIC, serial dilution method in Müller-Hinton agar; assay type: cell-based; settings: Staphylococcus aureus, MS353, 18 h
Protocol: as §1

[19] = tested on: Staphylococcus aureus Terajima; assay: MIC, serial dilution method in Müller-Hinton agar; assay type: cell-based; settings: 37°C, 18 hours
Protocol: as §1

[20] = Test 1: urinary recovery after oral administration; assay type: in vivo; settings: mice (ICR-strain, female), 300 mcg per mouse, urine collected until 5 hours after administration, microbial assay, molar percentage
Protocol: To mice (ICR-strain, female, 4 weeks-aged) was orally administered a new cephalosporin compound according to this invention at a dosage of 300 mcg per mouse. Until the end of 5 hours after oral administration of the test cephalosporin compound, all the volumes of urine discharged by the treated mice were collected together, and the total amount of the test compound remaining in the collected urine was measured by a microbial assay method. The urinary recovery of the test compound was calculated in terms of percentage of the molar quantity of the test compound as recovered, against the molar quantity of the test compound as orally given.

[21] = K12C600, Escherichia coli K-12 C600, Müller-Hinton agar, 37°C, 18 hours, read-out: MIC
[22] = NIHJJS2, Escherichia coli NIHJ-JS-2, Müller-Hinton agar, 37°C, 18 hours, read-out: MIC
[23] = Staphylococcus aureus, FDA209P, 18 h
[24] = Klebsiella pneumoniae, PCI602, 18 h

SMILES	MIC [1] [µg/mL]	MIC [2, 21] [µg/mL]	MIC [3, 22] [µg/mL]	MIC [4] [µg/mL]	MIC [6] [µg/mL]	MIC (Proteus morganii IFO3848; IFO3848, 18 h) [µg/mL]	MIC (Proteus vulgaris OX-19) [µg/mL]	MIC [7] [µg/mL]	MIC [8] [µg/mL]	MIC [9] [µg/mL]	MIC [10] [µg/mL]	MIC [11] [µg/mL]	MIC [12] [µg/mL]	MIC [13] [µg/mL]	MIC [14] [µg/mL]	MIC [15] [µg/mL]	MIC (Salmonella typhi 901) [µg/mL]	MIC [16] [µg/mL]	MIC [18] [µg/mL]	MIC [19] [µg/mL]	further results
C/C=C\C1=C(C(=O)O)N2C(=O)C(NC(=O)[C@H](N)c3ccc(CO)c(O)c3)[C@H]2SC1 (stereo partly drawn) [Example 4 Compound, 7-{(R)-2-amino-2-(3-hydroxy-4-hydroxymethylphenyl)acetamido)-3-{(Z)-1-propenyl)-3-cephem-4-carboxylic acid]	0.2 (≈ 0.477 µM)	3.13 (≈ 7.46 µM)	6.25 (≈ 14.9 µM)	> 100	0.1 (≈ 0.238 µM)	1.56 (≈ 3.72 µM)	25 (≈ 59.6 µM)	> 100	> 100	12.5 (≈ 29.8 µM)	6.25 (≈ 14.9 µM)	100 (≈ 238 µM)	12.5 (≈ 29.8 µM)	0.78 (≈ 1.86 µM)	1.56 (≈ 3.72 µM)	1.56 (≈ 3.72 µM)	0.78 (≈ 1.86 µM)	1.56 (≈ 3.72 µM)	1.56 (≈ 3.72 µM)	0.1 (≈ 0.238 µM)	MIC ([5]; Klebsiella pneumoniae PCI602, Müller-Hinton agar, 37°C, 18 hours, read-out: MIC): 0.78 µg/mL (≈ 1.86 µM); MIC (Proteus rettgeri IFO3850; IFO3850, 18 h): 1.56 µg/mL (≈ 3.72 µM); MIC [17, 23]: 1.56 µg/mL (≈ 3.72 µM); dose excreted [20]: 58.8%
CC1=C(C(=O)O)N2C(=O)[C@@H](NC(=O)[C@H](N)c3ccccc3)[C@H]2SC1 [CEX, Cefalexin, reference compound]	0.78 (≈ 2.25 µM)			> 100	0.1 (≈ 0.288 µM)		12.5 (≈ 36 µM)	> 100	> 100	12.5 (≈ 36 µM)	12.5 (≈ 36 µM)	12.5 (≈ 36 µM)	12.5 (≈ 36 µM)	> 100	6.25 (≈ 18 µM)	6.25 (≈ 18 µM)	3.13 (≈ 9.01 µM)	6.25 (≈ 18 µM)	3.13 (≈ 9.01 µM)	0.2 (≈ 0.576 µM)	MIC ([2]; Escherichia coli, K12C600, 18 h): 6.25 µg/mL (≈ 18 µM); MIC ([3]; Escherichia coli, NIHJJS2, 18 h): 6.25 µg/mL (≈ 18 µM); MIC [5, 24]: 3.13 µg/mL (≈ 9.01 µM); MIC (Proteus morganii IFO3848; Proteus morganii IFO3848, Müller-Hinton agar, 37°C, 18 hours, read-out: MIC): 25 µg/mL (≈ 72 µM); MIC (Proteus rettgeri IFO3850; Proteus rettgeri IFO3850, Müller-Hinton agar, 37°C, 18 hours, read-out: MIC): 12.5 µg/mL (≈ 36 µM); MIC [17, 23]: 3.13 µg/mL (≈ 9.01 µM)
C/C=C\C1=C(C(=O)O)N2C(=O)C(NC(=O)[C@H](N)c3ccc(COC)c(OC)c3)[C@H]2SC1 (stereo partly drawn) [Example 6 Compound, 7-{(R)-2-amino-2-(3-methoxy-4-methoxymethylphenyl)acetamido}-3-{(Z)-1-propenyl}-3-cephem-4-carboxylic acid]	0.05 (≈ 0.112 µM)	6.25 (≈ 14 µM)	25 (≈ 55.9 µM)	> 100	0.025 (≈ 0.0559 µM)	1.56 (≈ 3.49 µM)	100 (≈ 223 µM)	> 100	> 100	100 (≈ 223 µM)	12.5 (≈ 27.9 µM)	> 100	25 (≈ 55.9 µM)	6.25 (≈ 14 µM)	3.13 (≈ 6.99 µM)	1.56 (≈ 3.49 µM)	12.5 (≈ 27.9 µM)	12.5 (≈ 27.9 µM)	1.56 (≈ 3.49 µM)	0.1 (≈ 0.223 µM)	MIC [5, 24]: 1.56 µg/mL (≈ 3.49 µM); MIC (Proteus rettgeri IFO3850; IFO3850, 18 h): 12.5 µg/mL (≈ 27.9 µM); MIC ([17]; Staphylococcus aureus FDA209P JC-1, Müller-Hinton agar, 37°C, 18 hours, read-out: MIC): 0.78 µg/mL (≈ 1.74 µM); dose excreted [20]: 32.9%
